Assay results published in publication PMC9026082, “Madecassic Acid—A New Scaffold for Highly Cytotoxic Agents” (International Journal of Molecular Sciences, 2022).

Key:
[1] = tested on: HT29 (colorectal carcinoma); test: SRB cytotoxicity assay, HT29; assay type: cell-based, human; conditions: cut-off 30 μM
Source text: (§1) To assess their cytotoxicity parent, triterpenoic acids 1–3, their acetates 4–6, the amides 7–18, as well as the respective rhodamine B conjugates 19–24 were subjected to SRB assays employing several human tumor cell lines (A375, HT29, MCF-7, A2780, and HeLa) as well as non-malignant fibroblasts (NIH 3T3).
(§2) A detailed description of materials and methods can be found in the Supplementary Materials File. For biological screening, the cell lines were obtained from ATCC: A375 (CRL-1619), HT29 (HTB-38), MCF7 (HTP-22), A2780 (HTP-77), HeLa (CCL-2), and NIH 3T3 (CRL-1573) ^13C NMR spectra (Supplementary Materials) were recorded as APT spectra showing CH and CH3 groups as positive signals and CH2 groups and quaternary carbons as negative signals. […]
(§3) 2. Cytotoxicity assay (SRB assay)
(§4) The cell lines were obtained from Department of oncology (Martin-Luther-University Halle Wittenberg). Cultures were maintained as monolayers in RPMI 1640 medium with L-glutamine (Capricorn Scientific GmbH, Ebsdorfergrund, Germany) supplemented with 10% heat inactivated fetal bovine serum (Sigma -Aldrich Chemie GmbH, Steinheim, Germany) and penicillin/streptomycin (1%, Capricorn Scientific GmbH, Ebsdorfergrund, Germany) at 37 °C in a humidified atmosphere with 5% CO 2.
(§5) The cytotoxicity of the compounds was eva luated using the sulforhodamine -B (Kiton-Red S, ABCR) micro culture colorimetric assay using […] in 96 -well plates with the seeding of the cells on day 0 applying appropriate cell densities to prevent confluence of the cells during the period of the experiment. On day 1, the cells were treated with six di fferent concentrations (1, 3, 7, 12, 20 and 30 μM); thereby, the final concentration of DMSO was always < 0.5%, generally regarded as non-toxic to the cells. On day 4, the supernatant medium was discarded; the cells were fixed with 10 % trichloroacetic acid. After another day at 4 °C, the cells were washed in a strip washer and dyed with the SRB solution (100 μL, 0.4% in 1% acetic acid) for about 20 min to be followed by washing of the plates (four times, 1% acetic acid) and air -drying […]
(§6) overnight. Furthermore, tris base solution (200 μL, 10 mM) was added to each well and absorbance was measured at λ = 570 nm employing a reader (96 wells, Tecan Spectra, Crailsheim, Germany). The EC50 values were averaged from three independent experiments performed each in triplicate calculated from semi logarithmic dose response curves applying a non-linear four-parameter Hills-slope equation (GraphPad Prism5; variables top and bottom were set to 100 and 0, respectively).

[2] = tested on: NIH 3T3 (non-malignant fibroblasts); test: SRB cytotoxicity assay, NIH 3T3; assay type: cell-based; conditions: cut-off 30 μM
Source text: as §1, §2, §3, §4, §5, §6

[3] = tested on: HeLa (cervical carcinoma); test: SRB cytotoxicity assay, HeLa; assay type: cell-based, human; conditions: 72 h of treatment, cut-off 30 μM
Source text: as §1, §2, §3, §4, §5, §6

[4] = tested on: MCF7 (breast adenocarcinoma); test: SRB cytotoxicity assay, MCF7; assay type: cell-based, human; conditions: cut-off 30 μM
Source text: as §1, §2, §3, §4, §5, §6

[5] = tested on: A2780 (ovarian carcinoma); test: SRB cytotoxicity assay, A2780; assay type: cell-based, human; conditions: for EC50: SRB assay, 72 h of treatment, cut-off 30 μM
Source text: as §1, §2, §3, §4, §5, §6

[6] = tested on: A375 (melanoma); test: SRB cytotoxicity assay, A375; assay type: cell-based, human; conditions: 72 h of treatment, cut-off 30 μM
Source text: as §1, §2, §3, §4, §5, §6

[7] = tested on: several human tumor cell lines (A375, HT29, MCF-7, A2780, and HeLa); test: SRB assays, cell line not given; assay type: cell-based; conditions: cell line not stated; for EC50: Homo sapiens, SRB assays, lowest value of the series, read-out: EC50 values as low as (analogs of madecassic acid)
Source text: as §1, with “3T3). […]” for “3T3).”
as §3, §4, §5, §6

[8] = tested on: A375 cells; test: Staining experiments (acridine orange, rhodamine 123, Hoechst 33,342); assay type: cell-based, human; conditions: 48 h, same area as rhodamine 123, not in nucleus (Hoechst 33,342)
Experimental: The mode of action—as previously shown for several triterpene-rhodamine B conjugates—is to act as mitocans. […] Thereby, Hoechst 33,342 binds selectively to DNA while rhodamine 123 is usually applied for dying mitochondria.
Figure 1 Staining experiments: A375 cells, 48 h; (A): control; (B): in the presence of 24; (C): Hoechst 33,342 staining; (D): merged (Hoechst 33,342, control); and (E): in the presence of rhodamine 123.

[9] = Homo sapiens, HT-29, 72 h of treatment
[10] = Mus musculus, NIH3T3, 72 h of treatment
[11] = Homo sapiens, MCF7, 72 h of treatment

Row | Molecule | melting point | EC50 [7] | EC50 [1, 9] | EC50 [2, 10] | EC50 ([3]; Homo sapiens, HeLa) | EC50 [4, 11] | EC50 ([5]; Homo sapiens, A2780) | EC50 ([6]; Homo sapiens, A-375, 72 h) | mode of action / localization within the cells [8] | times more cytotoxic than parent madecassic acid [7] | times more cytotoxic than parent madecassic acid ([5]; A2780 ovarian cancer cells) | EC50 ([1]; 72 h of treatment) | EC50 ([2]; 72 h of treatment) | EC50 [3] | EC50 ([4]; 72 h of treatment) | EC50 [5] | EC50 [6]
1 | CC1(C)CC[C@]2(C(=O)O)CC[C@]3(C)C(=CC[C@@H]4[C@@]5(C)CC[C@H](O)[C@@](C)(CO)[C@@H]5CC[C@]43C)[C@@H]2C1 [Compound 2, (3β,4α) 3,23-Dihydroxyolean-12-en-28-oic Acid] |  |  | > 30 µM | > 30 µM | > 30 µM | 25.7 ± 1.9 µM | 19.6 ± 1.6 µM | 26.3 ± 1.8 µM |  |  |  |  |  |  |  |  | 
2 | CC(=O)O[C@H]1CC[C@]2(C)[C@H]3CC=C4[C@@H]5CC(C)(C)CC[C@]5(C(=O)O)CC[C@@]4(C)[C@]3(C)CC[C@H]2[C@]1(C)C=O [Compound 4, (3β,4α) 3-(Acetyloxy)-23-oxoolean-12-en-28-oic Acid] |  |  | > 30 µM |  | > 30 µM | 24.6 ± 4.7 µM |  | > 30 µM |  |  |  |  |  |  |  |  | 
3 | CCN(CC)c1ccc2c(-c3ccccc3C(=O)N3CCN(C(=O)[C@]45CC[C@@H](C)[C@H](C)[C@H]4C4=CC[C@@H]6[C@@]7(C)C[C@@H](OC(C)=O)[C@H](OC(C)=O)[C@@](C)(COC(C)=O)[C@@H]7[C@H](O)C[C@@]6(C)[C@]4(C)CC5)CC3)c3ccc(=[N+](CC)CC)cc-3oc2c1 [Compound 23, N-{6-Diethylamino-9-[2-({4[ (2α,3β,4α,6β)-2,3,23-tris(acetyloxy)-6-hydroxy-28-oxours-12-en-28-yl)-1-piperazinyl]carbonyl]phenyl]-3H-xanthen-3-ylidene)-N-ethylethanaminium Chloride] |  | ≥ 0.015 µM | 0.108 ± 0.02 µM | 0.277 ± 0.03 µM |  | 0.054 ± 0.01 µM | 0.015 ± 0.001 µM | 0.055 ± 0.01 µM |  |  |  |  |  |  |  |  | 
4 | CCN(CC)c1ccc2c(-c3ccccc3C(=O)N3CCCN(C(=O)[C@]45CC[C@@H](C)[C@H](C)[C@H]4C4=CC[C@@H]6[C@@]7(C)C[C@@H](OC(C)=O)[C@H](OC(C)=O)[C@@](C)(COC(C)=O)[C@@H]7[C@H](O)C[C@@]6(C)[C@]4(C)CC5)CC3)c3ccc(=[N+](CC)CC)cc-3oc2c1 [Compound 24, N-{6-Diethylamino-9-[2-({4[ (2α,3β,4α,6β)-2,3,23-tris(acetyloxy)-6-hydroxy-28-oxours-12-en-28-yl)-1,4-diazepan-1-yl}carbonyl]phenyl]-3H-xanthen-3-ylidene)-N-ethylethanaminium Chloride] |  |  | 0.0127 ± 0.0038 µM | 0.101 ± 0.0231 µM | 0.0526 ± 0.0151 µM | 0.0162 ± 0.0045 µM | 0.0029 ± 0.0005 µM | 0.0095 ± 0.0015 µM | acts as a mitocan | ~10,000 times | more than 10,000 times |  |  |  |  |  | 
5 | (3β,4α) 3-Hydroxy-23-oxoolean-12-en-28-oic Acid [Compound 1] |  |  |  |  |  |  |  |  |  |  |  | > 30 µM | 16.7 ± 2.8 µM | 25 ± 4.1 µM | 18.5 ± 2.2 µM | 13 ± 1.6 µM | 17.3 ± 1.6 µM

Continued, in another order:

Row | melting point | EC50 [7] | Molecule | EC50 [1, 9] | EC50 [2, 10] | EC50 ([3]; Homo sapiens, HeLa) | EC50 [4, 11] | EC50 ([5]; Homo sapiens, A2780) | EC50 ([6]; Homo sapiens, A-375, 72 h) | mode of action / localization within the cells [8] | times more cytotoxic than parent madecassic acid [7] | times more cytotoxic than parent madecassic acid ([5]; A2780 ovarian cancer cells) | EC50 ([1]; 72 h of treatment) | EC50 ([2]; 72 h of treatment) | EC50 [3] | EC50 ([4]; 72 h of treatment) | EC50 [5] | EC50 [6]
6 | 185 to 189 °C |  | CC(=O)OC[C@@]1(C)[C@@H]2CC[C@]3(C)[C@H](CC=C4[C@@H]5CC(C)(C)CC[C@]5(C(=O)O)CC[C@]43C)[C@@]2(C)CC[C@@H]1OC(C)=O [Compound 5, (3β,4α) 3,23-Bis(acetyloxy)olean-12-en-28-oic Acid] | 19 ± 0.6 µM | 9.6 ± 0.6 µM | 12.4 ± 0.7 µM | 9.8 ± 1 µM | 11.9 ± 0.5 µM | 17.1 ± 1.1 µM |  |  |  |  |  |  |  |  | 
7 | 90 to 95 °C | ≥ 0.015 µM | CC(=O)OC[C@@]1(C)[C@@H]2[C@H](O)C[C@]3(C)[C@H](CC=C4[C@@H]5[C@@H](C)[C@H](C)CC[C@]5(C(=O)NCc5ccccc5)CC[C@]43C)[C@@]2(C)C[C@@H](OC(C)=O)[C@@H]1OC(C)=O [Compound 15, (2α,3β,4α,6β) 2,3,23-Tris(acetyloxy)-N-(benzyl)-6-hydroxyurs-12-en-28-amide] | 2.3 ± 0.2 µM | 17.9 ± 2.1 µM |  | 2.7 ± 0.4 µM | 1.4 ± 0.1 µM | 1 ± 0.1 µM |  |  |  |  |  |  |  |  | 
8 | 135 to 139 °C | ≥ 0.015 µM | CC(=O)OC[C@@]1(C)[C@@H]2[C@H](O)C[C@]3(C)[C@H](CC=C4[C@@H]5[C@@H](C)[C@H](C)CC[C@]5(C(=O)Nc5ccccc5)CC[C@]43C)[C@@]2(C)C[C@@H](OC(C)=O)[C@@H]1OC(C)=O [Compound 16, (2α,3β,4α,6β) 2,3,23-Tris(acetyloxy)-N-(phenyl)-6-hydroxyurs-12-en-28-amide] | 3.7 ± 0.4 µM | 21.1 ± 1.1 µM |  | 4.5 ± 0.9 µM | 2.2 ± 0.1 µM | 1.3 ± 0.1 µM |  |  |  |  |  |  |  |  | 
